Experimental data taken from PMC6271870, “Study on the Synthesis, Biological Activity and Spectroscopy of Naphthalimide-Diamine Conjugates” (Molecules, 2014).

Assays:
[1] = tested on: human leukemia K562; assay: MTT assay, K562 cells; assay type: cell-based; details: 48 h, aminoguanidine present, mean ± SD of three determinations, max 50 µM tested
Experimental: The cytotoxicities of the novel conjugates were assessed in vitro by the MTT assay in the presence of aminoguanidine (an inhibitor of amine oxidase) against three cell lines, human leukemia K562, cancer of colon HCT116 and human normal hepatocyte QSG-7701 [34]. […] Thus, compound 7f was selected for further investigation. Cell lines, K562, 7721 and HCT116 were obtained from American Type Culture Collection (ATCC, Shanghai, China). Cells were cultured in RPMI1640, supplemented with 10% heat-inactivated fetal calf serum (FCS), antibiotics (penicillin, 100 units/mL; streptomycin sulfate, 100 μg/mL) at 37 °C, in an atmosphere of 95% air and 5% CO2 under humidified conditions. Aminoguanidine (1 mM) was added as an inhibitor of amine oxidase derived from FCS and had no effect on the various parameters of the cell measured in this study. Chemosensitivity was assessed using the 3-(4,5-dimethylthiazol-2-yl)-2,5-diphenyltetrazolium bromide (MTT) assay. […] After incubation for 4 h at 37 °C, the purple formazan crystals (i.e., a reduced form of MTT) generated from viable cells were dissolved by adding 100 μL 10% sodium dodecyl sulphate (SDS) in each well. The absorbance of each well was then read at 570 nm.

[2] = tested on: cancer of colon HCT116; assay: MTT assay, HCT116 cells; assay type: cell-based; details: Homo sapiens, HCT-116, aminoguanidine present, mean ± SD of three determinations, max 50 µM tested
Experimental: (§1) The cytotoxicities of the novel conjugates were assessed in vitro by the MTT assay in the presence of aminoguanidine (an inhibitor of amine oxidase) against three cell lines, human leukemia K562, cancer of colon HCT116 and human normal hepatocyte QSG-7701 [34]. […] Thus, compound 7f was selected for further investigation. Cell lines, K562, 7721 and HCT116 were obtained from American Type Culture Collection (ATCC, Shanghai, China). Cells were cultured in RPMI1640, supplemented with 10% heat-inactivated fetal calf serum (FCS), antibiotics (penicillin, 100 units/mL; streptomycin sulfate, 100 μg/mL) at 37 °C, in an atmosphere of 95% air and 5% CO2 under humidified conditions. Aminoguanidine (1 mM) was added as an inhibitor of amine oxidase derived from FCS and had no effect on the various parameters of the cell measured in this study. In addition, exponentially growing HCT116 or 7721 cells were seeded into 96-well plates at 5000 cells/well and allowed to attach overnight, and then 100 μL of MTT (1 mg/mL) was added. After incubation for 4 h at 37 °C, the MTT solution was removed and the remaining formazan crystals were dissolved with 150 μL DMSO in each well. The absorbance of each well was then read at 570 nm.

[3] = tested on: human normal hepatocyte QSG-7701; assay: MTT assay, QSG-7701 cells; assay type: cell-based; details: QSG7701, aminoguanidine present, mean ± SD of three determinations, max 50 µM tested
Experimental: as §1

| Structure (SMILES) | IC50 [1] | IC50 [2] | melting point | IC50 [3] |
| --- | --- | --- | --- | --- |
| Cl.Cl.NCCCNCCCN1C(=O)c2cccc3cccc(c23)C1=O [Compound 7d, 2-[3-(3-Aminopropylamino)propyl]1H-benz-[de]isoquinoline-1,3(2H)-dione dihydrochloride] | 19.7 ± 7.23 µM | 8.95 ± 3.87 µM | 233.1 to 234.2 °C | 8.04 ± 3.35 µM |
| CN(C)CCN1C(=O)c2cccc3cc(N)cc(c23)C1=O [Amonafide, amonafide, reference compound] | 10.1 ± 2.59 µM | 6.86 ± 1.89 µM | – | 20.3 ± 2.43 µM |
| Cl.Cl.NCCNCCCCCN1C(=O)c2cccc3cccc(c23)C1=O [Compound 7c, 2-[5-(2-Aminoethylamino)pentyl]1H-benz-[de]isoquinoline-1,3(2H)-dione dihydrochloride] | 38.8 ± 1.76 µM | 9.89 ± 1.11 µM | 233.8 to 235.1 °C | > 50 µM |
| Cl.Cl.NCCNCCCCN1C(=O)c2cccc3cccc(c23)C1=O [Compound 7b, 2-[4-(2-Aminoethylamino)butyl]1H-benz-[de]isoquinoline-1,3(2H)-dione dihydrochloride] | 25.6 ± 3.74 µM | 13.9 ± 2.68 µM | 243.1 to 244.1 °C | 33.9 ± 4.32 µM |
| Cl.Cl.NCCNCCCN1C(=O)c2cccc3cccc(c23)C1=O [Compound 7a, 2-[3-(2-Aminoethylamino)propyl]1H-benz-[de]isoquinoline-1,3(2H)-dione dihydrochloride] | 48.8 ± 3.93 µM | 19.3 ± 4.39 µM | 233.4 to 235.1 °C | > 50 µM |

Continued, in another order:

| IC50 [1] | IC50 [2] | melting point | Structure (SMILES) | IC50 [3] |
| --- | --- | --- | --- | --- |
| 12.6 ± 0.81 µM | 16.4 ± 1.75 µM | 235.9 to 237.2 °C | Cl.Cl.NCCCCCCNCCCCN1C(=O)c2cccc3cccc(c23)C1=O [Compound 7j, 2-[4-(6-Aminohexylamino)butyl]1H-benz-[de]isoquinoline-1,3(2H)-dione dihydrochloride] | 13.1 ± 3.94 µM |
| 22.4 ± 1.21 µM | 9.52 ± 3.31 µM | 238.6 to 239.8 °C | Cl.Cl.NCCCNCCCCCN1C(=O)c2cccc3cccc(c23)C1=O [Compound 7e, 2-[5-(3-Aminopropylamino)pentyl]1H-benz-[de]isoquinoline-1,3(2H)-dione dihydrochloride] | 22.2 ± 0.67 µM |
| 15.9 ± 1.83 µM | 9.95 ± 1.81 µM | 229.1 to 230.3 °C | Cl.Cl.NCCCCCCNCCCCCN1C(=O)c2cccc3cccc(c23)C1=O [Compound 7k, 2-[5-(6-Aminohexylamino)pentyl]1H-benz-[de]isoquinoline-1,3(2H)-dione dihydrochloride] | 14.7 ± 3.91 µM |
| 15.9 ± 1.53 µM | 16.2 ± 4.28 µM | 236.6 to 237.9 °C | Cl.Cl.NCCCCNCCCCCN1C(=O)c2cccc3cccc(c23)C1=O [Compound 7h, 2-[5-(4-Aminobutylamino)pentyl]1H-benz-[de]isoquinoline-1,3(2H)-dione dihydrochloride] | 18.8 ± 4.94 µM |
| 14 ± 3.32 µM | 13.9 ± 2.54 µM | 226.7 to 228.3 °C | Cl.Cl.NCCCCNCCCCN1C(=O)c2cccc3cccc(c23)C1=O [Compound 7g, 2-[4-(4-Aminobutylamino)butyl]1H-benz-[de]isoquinoline-1,3(2H)-dione dihydrochloride] | 12 ± 4.07 µM |
| 41.4 ± 1.76 µM | 11 ± 1.71 µM | 230.6 to 231.8 °C | Cl.Cl.NCCCCCCNCCCN1C(=O)c2cccc3cccc(c23)C1=O [Compound 7i, 2-[3-(6-Aminohexylamino)propyl]1H-benz-[de]isoquinoline-1,3(2H)-dione dihydrochloride] | > 50 µM |
